Among the data in patent US20120014912A1, “PALATABLE PHARMACEUTICAL COMPOSITION” (VERTEX PHARMACEUTICALS INCORPORATED, priority 2010, published 2012) are antiviral activity values, retold here.

The subject of this assay is HCV. As to the kind of experiment: Clinical trials, antiviral activity. Format: in vivo, Hepatitis C virus.

SMILES strings stand for the structures.

Consider `CCC[C@H](NC(=O)[C@@H]1[C@H]2CCC[C@H]2CN1C(=O)[C@@H](NC(=O)[C@@H](NC(=O)c1cnccn1)C1CCCCC1)C(C)(C)C)C(=O)C(=O)NC1CC1` [VX-950], for which the antiviral activity entry is given as “has shown antiviral activity”.
